Assay results taken from US8487001B2, “Medium-chain length fatty acids, glycerides and analogues as neutrophil survival and activation factors” (ProMetic BioSciences Inc., priority 2001, dated 2013).
Several values for one entry are separate records, joined by “and”; a condition that tells them apart may be missing. Identical values can stand only once. Entries after “also recorded” stand apart in the source; their conditions may differ.

Key:
[1] = test system: bone marrow cells; assay: In vivo chemoprotection: bone marrow cell count; conditions: for effect on bone marrow cell count compared to cyclophosphamide treated mice: protocol of example 16 (pre-treatment)
Experimental: (§1) To examine the immunoprotective effect of MCT or other compounds, mice were pre-treated orally at day-3, -2 and -1 or treated intravenously at day 0 with the test compound. Mice were sacrificed at day +5 by cardiac puncture and cervical dislocation. Then, cell suspensions were prepared from thymus, spleen and bone marrow as follow.
(§2) Tissues were crushed in PBS buffer and contaminating erythrocytes were lysed in ACK buffer (155 mM NH4Cl, 12 mM NaHCO3, 0.1 mM EDTA, pH 7.3) for 5 minutes. Cells were then collected by centrifugation and washed three times in PBS and resuspended in tissue culture medium. Cells were counted on a hemacytometer.
(§3) Chemoprotection studies were performed as described in example 16 except that mice were (post)-treated with MCT, sodium caprylate, sodium caprate or capric acid per o.s. on day 1, 2, 3 and 4.

[2] = test system: spleen cells; assay: In vivo chemoprotection: spleen cell count; conditions: for effect on spleen cell count compared to cyclophosphamide treated mice: protocol of example 16 (pre-treatment)
Experimental: as §1, §2, §3

[3] = test system: blood cell subsets; assay: Blood immunophenotyping (flow cytometry of cell surface markers); format: in vivo, C57BL/6 mice; conditions: for Blood Immunophenotyping: effect compared to cyclophosphamide alone (words): CY (200 mg/kg) immunosuppressed mice
Experimental: (§4) Female, 6- to 8-week old, C57BL/6 mice were pre-treated on day -3, -2 and -1 per o.s. or intravenously at day 0 with different concentrations of MCT. Immunophenotyping was also performed on immunosuppressed animals. […] Mice were sacrificed on day 5 by cardiac puncture. Blood and spleens were collected and cell suspensions prepared and erythrocytes lysed in ACK buffer (155 mM NH4Cl, 12 mM NaHCO3, 0.1 mM EDTA, pH 7.3) for 5 minutes. The cells were washed three times in PBS, pH 7.4 and resuspended in tissue culture medium. The cells were then incubated for 45 minutes on ice with fluorescein isothiocyanate (FITC) or phycoerythrin (PE) conjugated cell surface marker according to the manufacturer's (Gibco/BRL, Cedarlane, Boehringer Mannheim) recommendation. The cells were then washed in PBS, fixed with 1% paraformaldehyde and analyzed with a Coulter XL flow cytometer. Analysis of the cell subsets was undertaken by determination of standard cell surface markers which were as follows: TCR (T-cell receptor), CD4 (T helper), CD8 (T cytotoxic/suppressor), CD11b (macrophage), NK (NK cells) and Ly5 (B-cells). Bone marrow cells were obtained as described in example 15. Cells were stained by a 45 minutes incubation of FITC or PE conjugated cell surface marker according to the manufacturer's recommendation. The cells were then washed in PBS, fixed with 1% paraformaldehyde and analyzed with a Coulter XL flow cytometer. Analysis of the cell subsets was undertaken by determination of standard cell surface markers which were as follows: CD34 (hematopoietic progenitor cells), CD41 (platelets, megakaryocytes), CD13 (myelomonocytic stem cells, myelocytes, promonocytes) and CD38 (lymphoid stem cells, pro-B, pre-B).

[4] = test system: spleen cell subsets; assay: Spleen immunophenotyping (flow cytometry of cell surface markers); format: in vivo, C57BL/6 mice
Experimental: as §4

[5] = test system: bone marrow cell subsets; assay: Bone marrow immunophenotyping (CD34, CD13, CD41, CD38); format: in vivo, C57BL/6 mice; conditions: mouse, in vivo
Experimental: as §4
The effect of MCT, sodium caprylate, sodium caprate on bone marrow immunophenotyping was assessed by the protocol described in example 26.

[6] = test system: DA-3 breast carcinoma; assay: Antitumor activity in DA-3 breast carcinoma model; format: in vivo, BALB/c mice; design: Tumor volume: unit not given here; conditions: for effect on tumor volume compared to the control: FIG. 12, Table 20; for effect on tumor volume compared to the control / T/C (%): therapeutic CY 200 mg/kg, TX 30 mg/kg; for Treated/Control (%) / Tumor volume: Table 19, sub-therapeutic CY 100 mg/kg, TX 20 mg/kg i.v. day 9 and 16, MCT per os, day 23; for T/C (%): Table 20
Experimental: The syngeneic tumor DMBA3 (DA-3, breast carcinoma model) arose from a preneoplastic lesion treated with 7,12-dimethylbenzanthracene in female BALB/c mice. DA-3 cells were grown as monolayer cultures in plastic flasks in RPMI-1640 containing 0.1 mM nonessential amino acids, […], 2 mM L-glutamine and 100 μg/ml gentamycin sulfate. This was further supplemented with 50 μM 2-mercaptoethanol and 10% fetal bovine serum. The DA-3 tumors were serially passage in vivo by s.c. inoculation of 5×10^5 viable tumor cells to produce localized tumors in 6- to 8-week old BALB/c mice. The animals were then serially monitored by manual palpation for evidence of tumor. Serial tumor volume was obtained by bi-dimensional diameter measurements with calipers, using the formula […] (a×b^2) where “a” was the major tumor diameter and “b” the minor perpendicular diameter.
BABL/c mice were injected with tumor cells on day 0. […] Body weights and tumor volumes were monitored from day 4 until day 23. At day 23, all animals were sacrificed. The % T/C (treatment over control) was calculated as the ratio of tumor volumes at termination date in the treatment group divided by the respective volumes in the control group multiplied by 100. By the NCl criteria the product is considered effective if % T/C is ≦40%.

[7] = test system: human neutrophils (PMN); assay: Doxorubicin-induced neutrophil apoptosis, comparison to GM-CSF (% PMN viability); format: cell-based; conditions: Table 2
From the text: Table 2 represents the effect of GM-CSF, MCT and tricaprylin on doxorubicin-induced human neutrophil apoptosis.

[8] = Table 5, CY-treated mice, CY + test compound (CY line = CY alone), protocol of example 16
[9] = Table 6, CY-treated mice, CY + test compound (CY line = CY alone), protocol of example 16
[10] = Table 7, CY-treated mice, CY + test compound 6.25 μMole pre-treatment (CY line = CY alone)
[11] = Table 8, CY-immunosuppressed mice, CY + test compound 6.25 μM (CY line = CY alone)
[12] = Table 9, CY-immunosuppressed mice, CY + test compound 6.25 μMole (CY line = CY alone)
[13] = Table 10, CY-treated mice, post-treatment per o.s. on day 1, 2, 3 and 4 with test substance 12.5 μM (CY line = CY alone)
[14] = Table 16, CY-treated mice, CY + test compound (CY line = CY alone), protocol of example 16
[15] = CY (200 mg/kg) immunosuppressed mice
[16] = Table 14, CY (200 mg/kg) immunosuppressed mice, compound 6.25 μM

Compound: O=P1(N(CCCl)CCCl)NCCCO1 (stereo not drawn) [CY, cyclophosphamide, reference compound]
- effect of cytotoxic drug on bone marrow cell count compared to the control ([1]; FIG. 6, cytotoxic drug i.v. at day 0): depressed the bone marrow cell count compared to the control
- Bone Marrow # Cells (×10^6) [1, 8]: 22 ± 5.7 ×10^6
- Bone Marrow # Cells (×10^6) [1, 9]: 22 ± 5.8 ×10^6
- Bone Marrow # Cells (×10^6) [1, 10]: 32 ± 6.3 ×10^6
- Bone Marrow # Cells (×10^6) [1, 11]: 27 ± 2.8 ×10^6
- Bone Marrow # Cells (×10^6) [1, 12]: 25 ± 4.9 ×10^6
- Bone Marrow # Cells (×10^6) [1, 13]: 19 ± 4.99 ×10^6
- Bone Marrow # Cells (×10^6) [1, 14]: 28 ± 3.4 ×10^6
- Bone Marrow # Cells (×10^6) ([1]; Table 17, CY-treated mice, CY + test compound (CY line = CY alone), protocol of example 16): 26.2 ± 2.6 ×10^6
- Bone Marrow # Cells (×10^6) ([1]; Table 18, CY-treated mice, CY + test compound (CY line = CY alone), protocol of example 16): 27.5 ± 8.0 ×10^6
- effect of cytotoxic drug on spleen cell count compared to the control ([2]; FIG. 7, cytotoxic drug i.v. at day 0): reduce significantly the spleen cell count compared to the control
- Spleen # Cells (×10^6) [2, 8]: 23 ± 4.0 ×10^6
- Spleen # Cells (×10^6) [2, 9]: 36 ± 13.6 ×10^6
- Spleen # Cells (×10^6) [2, 10]: 24 ± 6 ×10^6
- Spleen # Cells (×10^6) [2, 11]: 19 ± 6.5 ×10^6
- Spleen # Cells (×10^6) [2, 12]: 33 ± 13.2 ×10^6
- Spleen # Cells (×10^6) [2, 13]: 30 ± 9.5 ×10^6
- Spleen # Cells (×10^6) [2, 14]: 29 ± 9.2 ×10^6
- Blood Immunophenotyping: CD11+ cell subset (relative percentage) ([3]; mouse, in vivo): 26.41 ± 4.54
- Blood Immunophenotyping: LY5−TCR− cell subset (relative percentage) ([3]; mouse, in vivo): 36.82 ± 9.93 and 56.36 ± 7.26 and 40.91 ± 8.84
- Spleen Immunophenotyping: CD11+ cell subset (relative percentage) ([4]; mouse, in vivo): 16.31 ± 4.85
- Spleen Immunophenotyping: NK+ cell subset (relative percentage) ([4]; mouse, in vivo): 7.53 ± 2.52
- % Cells CD13+ (bone marrow) [5]: 3.2 ± 0.5%
- % Cells CD34+ (bone marrow) [5]: 10 ± 1.0%
- % Cells CD38+ (bone marrow) [5]: 39.6 ± 13.6%
- % Cells CD41+ (bone marrow) [5]: 4.2 ± 0.6%
- Bone marrow immunophenotyping [5]: induces a significant increase in all studied subsets
- effect on tumor volume compared to the control [6]: significant reduction of the tumor volume
- Treated/Control (%) [6]: 46.8%
- Tumor volume [6]: 27.5 ± 15.9
- T/C (%) [6]: 18.8%

Compound: CC(=O)O[C@@]12CO[C@@H]1C[C@H](O)[C@@]1(C)C(=O)[C@H](O)C3=C(C)[C@@H](OC(=O)[C@H](O)[C@@H](NC(=O)OC(C)(C)C)c4ccccc4)C[C@@](O)([C@@H](OC(=O)c4ccccc4)[C@H]21)C3(C)C [TX, taxotere]
- effect of cytotoxic drug on bone marrow cell count compared to the control ([1]; mouse, in vivo, iv): has no significant effect on bone marrow cell count
- effect of cytotoxic drug on spleen cell count compared to the control ([2]; mouse, in vivo, iv): reduce significantly the spleen cell count compared to the control
- effect on tumor volume compared to the control [6]: not significant compared to the control mice
- Treated/Control (%) [6]: 64.5%
- Tumor volume [6]: 37.9 ± 41.5
- T/C (%) [6]: 64.7%

Compound: CCCCCCCCCC(=O)OCC(N)COC(=O)CCCCCCCCC [didecanoyl serinol, 1,3-O,O-Didecanoyl serinol]
- Bone Marrow # Cells (×10^6) [1, 14]: 30 ± 3.8 ×10^6
- Spleen # Cells (×10^6) [2, 14]: 36 ± 9.9 ×10^6
- melting point: 101 °C

Compound: CCCCCCCC(=O)OCC(COC(=O)CCCCCCC)OC(=O)CCCCCCC [tricaprylin]
- effect on doxorubicin-induced human neutrophil apoptosis [7]: rescues doxorubin-induced apoptosis and further enhances the viability of human neutrophils to a higher extent than that observed in the non-treated neutrophils
- effect on bone marrow cell count compared to cyclophosphamide treated mice ([1]; CY-treated mice): efficacious in the proliferation or protection of bone marrow cell counts
- Bone Marrow # Cells (×10^6) [1, 9]: 34 ± 7.8 ×10^6
- effect on spleen cell count compared to cyclophosphamide treated mice ([2]; CY-treated mice): No significant effect
- Spleen # Cells (×10^6) [2, 9]: 37 ± 12.6 ×10^6

Compound: CCCCCCCCCCCC(=O)OCC(COC(=O)CCCCCCCCCCC)OC(=O)CCCCCCCCCCC [trilaurin]
- effect on bone marrow cell count compared to cyclophosphamide treated mice ([1]; CY-treated mice): weak (not significant) activity
- Bone Marrow # Cells (×10^6) [1, 11]: 31 ± 6.8 ×10^6
- effect on spleen cell count compared to cyclophosphamide treated mice ([2]; CY-treated mice): weak (not significant) activity
- Spleen # Cells (×10^6) [2, 11]: 28 ± 19.5 ×10^6
- Blood Immunophenotyping: effect compared to cyclophosphamide alone (words) [3]: no significant effect compared to cyclophosphamide alone
- Blood Immunophenotyping: effect compared to cyclophosphamide alone (words) ([3]; listed as Trilaurin): No significant effect
- Spleen Immunophenotyping: effect compared to cyclophosphamide alone (words) [4, 15]: enhance the relative percentage of CD11+; also recorded: induces a significant increase in the LY5-TCR- and NK+ cell subsets
- Spleen Immunophenotyping: CD11+ cell subset (relative percentage) [4, 16]: 43.94 ± 4.78
- Spleen Immunophenotyping: LY5−TCR− cell subset (relative percentage) [4, 16]: 77.86 ± 2.94
- Spleen Immunophenotyping: NK+ cell subset (relative percentage) [4, 16]: 17.46 ± 5.80

Compound: CCCCCCCCCCCCCC(=O)OCC(COC(=O)CCCCCCCCCCCCC)OC(=O)CCCCCCCCCCCCC [trimyristin]
- effect on bone marrow cell count compared to cyclophosphamide treated mice ([1]; CY-treated mice): weak (not significant) activity
- Bone Marrow # Cells (×10^6) [1, 11]: 31 ± 9.9 ×10^6
- effect on spleen cell count compared to cyclophosphamide treated mice ([2]; CY-treated mice): weak (not significant) activity
- Spleen # Cells (×10^6) [2, 11]: 15 ± 4.6 ×10^6
- Blood Immunophenotyping: effect compared to cyclophosphamide alone (words) [3]: no significant effect compared to cyclophosphamide alone
- Blood Immunophenotyping: effect compared to cyclophosphamide alone (words) ([3]; listed as Trimyristin): No significant effect
- Spleen Immunophenotyping: effect compared to cyclophosphamide alone (words) [4, 15]: enhance the relative percentage of CD11+
- Spleen Immunophenotyping: CD11+ cell subset (relative percentage) [4, 16]: 42.94 ± 8.45
